Results on 12 compounds are retold here after ChEMBL document CHEMBL3045550, “Design, synthesis and biological activities of new strobilurin derivatives containing substituted pyrazoles” (2010).

What all share (format): functional
The test system of experiment [1] is Pseudoperonospora cubensis. As to the kind of experiment: Antifungal activity against Pseudoperonospora cubensis infected cucumber leaves assessed as disease control at 400 mg/l after 5 days relative to control.
Experiment [2] deals with Botrytis cinerea. As to the kind of experiment: Antifungal activity against Botryotinia fuckeliana infected cucumber leaves assessed as disease control at 400 mg/l after 4 days relative to control.
The subject of experiment [3] is Tetranychus cinnabarinus. In words: Acaricidal activity against Tetranychus cinnabarinus (carmine spider mite) in kidney bean plants assessed as mortality at 38 mg/l after 48 hr relative to control.
For experiment [4], the system named is Pseudoperonospora cubensis. As to the kind of experiment: Antifungal activity against Pseudoperonospora cubensis infected cucumber leaves assessed as disease control at 25 mg/l after 5 days relative to control.
Experiment [5] has as its system Tetranychus cinnabarinus. As to the kind of experiment: Acaricidal activity against Tetranychus cinnabarinus (carmine spider mite) in kidney bean plants assessed as mortality at 600 mg/l after 48 hr relative to control.
The subject of experiment [6] is Blumeria graminis f. sp. tritici. In words: Antifungal activity against Blumeria graminis f. sp. tritici infected seven-day-old wheat seedlings assessed as disease control at 1.56 mg/l after 7 days relative to control.
The test system is the same in experiment [7]. As to the kind of experiment: Antifungal activity against Blumeria graminis f. sp. tritici infected seven-day-old wheat seedlings assessed as disease control at 400 mg/l after 7 days relative to control.
Experiment [8] relates to Pseudoperonospora cubensis. As to the kind of experiment: Antifungal activity against Pseudoperonospora cubensis infected cucumber leaves assessed as disease control at 3.12 mg/l after 5 days relative to control.
Experiment [9] relates to Pseudoperonospora cubensis. In words: Antifungal activity against Pseudoperonospora cubensis infected cucumber leaves assessed as disease control at 6.25 mg/l after 5 days relative to control.
The subject of experiment [10] is Pyricularia oryzae. In words: Antifungal activity against Magnaporthe oryzae infected 12 day old rice plant assessed as disease control at 400 mg/l after 6 days relative to control.
Experiment [11] concerns Tetranychus cinnabarinus. In words: Acaricidal activity against Tetranychus cinnabarinus (carmine spider mite) in kidney bean plants assessed as mortality at 150 mg/l after 48 hr relative to control.
The test system of experiment [12] is Blumeria graminis f. sp. tritici. In words: Antifungal activity against Blumeria graminis f. sp. tritici infected seven-day-old wheat seedlings assessed as disease control at 12.5 mg/l after 7 days relative to control.

Turning to `CO/C=C(/C(=O)OC)c1ccccc1COc1cc(-c2ccccc2Cl)nn1C`, the Activity in experiment [1] came out at 100%; in [2], 0%; in experiment [3], 0%; in [4], 100%; in [5] it was 100%; in experiment [6], 40%. Moreover, the Activity in experiment [7] is 100%; in experiment [8] it was 0%; in [9], 0%; in [10], 0%; in experiment [11], 0%; in experiment [12] it was 100%.
In the case of `CO/C=C(/C(=O)OC)c1ccccc1COc1c(C)c(-c2ccc(C)cc2)nn1C` [METHYL 2-(2-((1,4-DIMETHYL-3-P-TOLYL-1H-PYRAZOL-5-YLOXY)METHYL)PHENYL)-3-METHOXYACRYLATE], the Activity is listed as 100% in experiment [1]; 0% in [2]; 0% in experiment [3]; 100% in experiment [4]; 100% in [5]; 45% in experiment [6]. Further, the Activity in experiment [7] was found to be 100%; in [8] it was 40%; in [9], 75%; in experiment [10], 0%; in experiment [11], 0%; in experiment [12] it was 100%.
Regarding `CO/C=C(/C(=O)OC)c1ccccc1COc1cc(-c2ccc(C)cc2C)nn1C` [METHYL 2-(2-((3-(2,4-DIMETHYLPHENYL)-1-METHYL-1H-PYRAZOL-5-YLOXY)METHYL)PHENYL)-3-METHOXYACRYLATE], the Activity worked out at 100% in experiment [1]; 50% in experiment [2]; 0% in experiment [3]; 100% in experiment [4]; 100% in experiment [5]; 80% in experiment [6]. Also, the Activity in [7] was found to be 100%; in experiment [8] it was 20%; in [9], 70%; in [10], 100%; in experiment [11] it was 0%; in [12] it was 100%.
In the case of `CO/C=C(/C(=O)OC)c1ccccc1COc1c(C)c(-c2cc(C)ccc2C)nn1C` [METHYL 2-(2-((3-(2,5-DIMETHYLPHENYL)-1,4-DIMETHYL-1H-PYRAZOL-5-YLOXY)METHYL)PHENYL)-3-METHOXYACRYLATE], the Activity in [1] was found to be 100%; in experiment [2] it was 50%; in experiment [3] it was 0%; in [4], 80%; in [5], 100%; in experiment [6] it was 0%. Besides, the Activity in experiment [7] was 100%; in experiment [8], 0%; in [9], 0%; in [10], 100%; in experiment [11] it was 20%; in experiment [12], 50%.
`CO/C=C(/C(=O)OC)c1ccccc1COc1c(C)c(-c2ccc(C)c(C)c2)nn1C` [METHYL 2-(2-((3-(3,4-DIMETHYLPHENYL)-1,4-DIMETHYL-1H-PYRAZOL-5-YLOXY)METHYL)PHENYL)-3-METHOXYACRYLATE]: the Activity is 100% in experiment [1]; 50% in experiment [2]; 0% in [3]; 100% in experiment [4]; 100% in experiment [5]; 70% in experiment [6]. In addition, the Activity in experiment [7] is listed as 100%; in experiment [8], 30%; in experiment [9] it was 85%; in experiment [10], 100%; in experiment [11], 80%; in experiment [12] it was 100%.
With `CO/C=C(/C(=O)OC)c1ccccc1COc1cc(-c2ccc(C)c(C)c2)nn1C` [METHYL 2-(2-((3-(3,4-DIMETHYLPHENYL)-1-METHYL-1H-PYRAZOL-5-YLOXY)METHYL)PHENYL)-3-METHOXYACRYLATE], the Activity in experiment [1] is given as 100%; in [2] it was 50%; in [3], 0%; in experiment [4], 100%; in experiment [5], 100%; in experiment [6] it was 80%. The Activity in [7] was 100%; in [8], 35%; in [9], 40%; in experiment [10], 100%; in experiment [11] it was 0%; in experiment [12] it was 100%.
With `CO/C=C(/C(=O)OC)c1ccccc1COc1cc(-c2ccc(Br)cc2)nn1C` [METHYL 2-(2-((3-(4-BROMOPHENYL)-1-METHYL-1H-PYRAZOL-5-YLOXY)METHYL)PHENYL)-3-METHOXYACRYLATE], the Activity in [1] was 100%; in experiment [2] it was 0%; in experiment [3] it was 57%; in experiment [4], 100%; in experiment [5], 100%; in [6] it was 10%. In addition, the Activity in [7] turned out to be 100%; in experiment [8], 60%; in experiment [9], 85%; in experiment [10] it was 70%; in [11], 71%; in experiment [12] it was 100%.
As to `CCOc1ccc(-c2nn(C)c(OCc3ccccc3/C(=C\OC)C(=O)OC)c2C)cc1` [METHYL 2-(2-((3-(4-ETHOXYPHENYL)-1,4-DIMETHYL-1H-PYRAZOL-5-YLOXY)METHYL)PHENYL)-3-METHOXYACRYLATE], the Activity in [1] came out at 100%; in experiment [2], 100%; in experiment [3], 20%; in experiment [4] it was 50%; in experiment [5] it was 100%; in [6] it was 65%. For the same compound, the Activity turned out to be 100% in experiment [7]; 0% in experiment [8]; 0% in [9]; 100% in [10]; 35% in [11]; 100% in experiment [12].
Regarding `CCc1ccc(-c2nn(C)c(OCc3ccccc3/C(=C\OC)C(=O)OC)c2C)cc1` [METHYL 2-(2-((3-(4-ETHYLPHENYL)-1,4-DIMETHYL-1H-PYRAZOL-5-YLOXY)METHYL)PHENYL)-3-METHOXYACRYLATE], the Activity in [1] is 100%; in experiment [2], 0%; in [3], 30%; in [4], 100%; in experiment [5] it was 100%; in experiment [6], 0%. Moreover, the Activity in [7] is recorded as 100%; in experiment [8] it was 20%; in [9], 60%; in experiment [10] it was 0%; in experiment [11] it was 100%; in [12] it was 100%.
On to `CO/C=C(/C(=O)OC)c1ccccc1COc1c(C)c(-c2ccc(C(C)(C)C)cc2)nn1C` [METHYL 2-(2-((3-(4-TERT-BUTYLPHENYL)-1,4-DIMETHYL-1H-PYRAZOL-5-YLOXY)METHYL)PHENYL)-3-METHOXYACRYLATE], for which the Activity in [1] amounted to 95%; in experiment [2], 50%; in [3], 0%; in experiment [4], 20%; in experiment [5], 100%; in experiment [6], 0%. Moreover, the Activity was 90% in [7]; 0% in experiment [8]; 0% in experiment [9]; 50% in [10]; 0% in experiment [11]; 10% in experiment [12].
Take `CO/C=C(/C(=O)OC)c1ccccc1COc1c(C)c(-c2ccc(OC)cc2)nn1C` [METHYL 3-METHOXY-2-(2-((3-(4-METHOXYPHENYL)-1,4-DIMETHYL-1H-PYRAZOL-5-YLOXY)METHYL)PHENYL)ACRYLATE]: the Activity came out at 100% in experiment [1]; 100% in experiment [2]; 0% in [3]; 100% in experiment [4]; 90% in experiment [5]; 95% in experiment [6]. The Activity was found to be 100% in [7]; 55% in experiment [8]; 96% in experiment [9]; 100% in [10]; 0% in experiment [11]; 100% in [12].
Take `CO/C=C(/C(=O)OC)c1ccccc1COc1cc(-c2ccc(Cl)cc2)nn1C` [PYRAOXYSTROBIN]: the Activity came to 100% in experiment [1]; 100% in experiment [2]; 0% in experiment [3]; 100% in [4]; 100% in [5]; 0% in [6]. Moreover, the Activity in experiment [7] is recorded as 100%; in experiment [8], 100%; in experiment [9], 100%; in experiment [10] it was 100%; in [11] it was 0%; in experiment [12], 75%.
